Among the test systems are SK-OV-3 ovarian; HT29 colon; HCC-2998 colon; OVCAR-4 ovarian; A498 renal; KM12 colon; SW-620 colon; UACC-257 melanoma; M14 melanoma; A549 NSCLC; LOX IMVI melanoma; HL-60(TB) leukemia; MCF7 breast; SF-539 CNS; HS 578T breast; SNB-75 CNS; OVCAR-3 ovarian; HOP-92 NSCLC.
Holding throughout (test): inhibition of tumour cell growth, NCI panel, 48 h

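1) Cells in 96-well plates. 2) Compound, 48 h, 5 concentrations. 3) Linear interpolation between surrounding doses. 4) Unreached endpoint = highest concentration. TGI marks complete inhibition of growth.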

Regarding `Cc1c(F)c(NC(=O)CN(C)C)c2c(=O)cc(-c3ccc(NC(=O)CN(C)C)c(F)c3)oc2c1F`, the TGI in the assay on SK-OV-3 ovarian stood at 30.5 µM; in the assay on HT29 colon, 33.8 µM; with HCC-2998 colon, 19 µM; in the assay on OVCAR-4 ovarian, 37.6 µM; with A498 renal it was 3.64 µM; in the assay on KM12 colon, 30.5 µM. Further, the TGI came out at 46.9 µM in the assay with SW-620 colon; 48.1 µM with UACC-257 melanoma; 31.7 µM in the assay with M14 melanoma; 35.6 µM in the assay with A549 NSCLC; 30.9 µM in the assay with LOX IMVI melanoma; 35.9 µM with HL-60(TB) leukemia. Further, the TGI with MCF7 breast was 28.3 µM; with SF-539 CNS it was 31.2 µM; in the assay on HS 578T breast it was 56.5 µM.

With `Cn1c(N=P(c2ccccc2)(c2ccccc2)c2ccccc2)c([N+](=O)[O-])c(=O)n(C)c1=O`, the TGI was over 100 µM with SK-OV-3 ovarian; over 100 µM in the assay with HT29 colon; 91.8 µM with SNB-75 CNS; over 100 µM in the assay with HCC-2998 colon; over 100 µM with OVCAR-4 ovarian; over 100 µM with A498 renal. Further, the TGI is 80.4 µM with KM12 colon; over 100 µM with SW-620 colon; over 100 µM in the assay on UACC-257 melanoma; over 100 µM in the assay on M14 melanoma; over 100 µM in the assay with A549 NSCLC; over 100 µM in the assay with LOX IMVI melanoma. The TGI in the assay on MCF7 breast, with SF-539 CNS, in the assay with OVCAR-3 ovarian, in the assay with HS 578T breast and in the assay on HOP-92 NSCLC was over 100 µM each time.

Take `COC(=O)/C(C#N)=C(\N)c1c(C)c2ccccc2oc1=N`: the TGI in the assay on SK-OV-3 ovarian, in the assay with SNB-75 CNS, in the assay with OVCAR-4 ovarian, in the assay on A498 renal, with KM12 colon and in the assay with SW-620 colon was over 100 µM throughout. Further, the TGI in the assay with UACC-257 melanoma, with A549 NSCLC, in the assay with LOX IMVI melanoma, with HL-60(TB) leukemia, with MCF7 breast and with SF-539 CNS was over 100 µM in each case. Further, the TGI in the assay with OVCAR-3 ovarian, in the assay with HS 578T breast and with HOP-92 NSCLC was over 100 µM throughout.

In the case of `Cc1cc2nc(N3C(=O)/C(=C/c4ccc(N(C)C)cc4)N=C3c3ccccc3)sc2cc1C`, the TGI is over 100 µM in the assay with SK-OV-3 ovarian; 44.2 µM with HT29 colon; 56.8 µM in the assay with SNB-75 CNS; 37.6 µM in the assay with HCC-2998 colon; over 100 µM in the assay with OVCAR-4 ovarian; over 100 µM in the assay with KM12 colon. Further, the TGI with SW-620 colon is over 100 µM; with UACC-257 melanoma, over 100 µM; in the assay on M14 melanoma it was 73.1 µM; in the assay with A549 NSCLC, over 100 µM; with LOX IMVI melanoma, over 100 µM; in the assay with HL-60(TB) leukemia it was 46.2 µM. The TGI with MCF7 breast was 21.3 µM; in the assay with SF-539 CNS it was 53.4 µM; with OVCAR-3 ovarian it was over 100 µM; with HS 578T breast, over 100 µM; with HOP-92 NSCLC, 53 µM.

As to `CC(=O)/C(C=Nc1c(C)n(C)n(C)c1=O)=C(/O)c1ccccc1`, the TGI in the assay with SK-OV-3 ovarian, in the assay with HT29 colon, with HCC-2998 colon, in the assay with OVCAR-4 ovarian, with A498 renal and in the assay on SW-620 colon was over 50 µM each time. For the same compound, the TGI with UACC-257 melanoma, in the assay with M14 melanoma, in the assay on A549 NSCLC, in the assay with LOX IMVI melanoma, with HL-60(TB) leukemia and in the assay with MCF7 breast was over 50 µM in each case. In addition, the TGI in the assay on SF-539 CNS, with OVCAR-3 ovarian, in the assay on HS 578T breast and in the assay with HOP-92 NSCLC was over 50 µM each time.

In the case of `O=C1NC(=S)NC(=O)C1=C/C=C/c1ccc([N+](=O)[O-])cc1`, the TGI in the assay with SK-OV-3 ovarian was 36 µM; with HT29 colon, 58.7 µM; in the assay with SNB-75 CNS, 35.2 µM; in the assay on HCC-2998 colon, 35.7 µM; with OVCAR-4 ovarian, 36.1 µM; in the assay on KM12 colon, over 100 µM. The TGI was 18.9 µM with SW-620 colon; 30.8 µM in the assay on UACC-257 melanoma; 30.8 µM in the assay on M14 melanoma; 50.4 µM in the assay with A549 NSCLC; 22.6 µM with LOX IMVI melanoma; over 100 µM in the assay with HL-60(TB) leukemia. Besides, the TGI turned out to be 34.9 µM in the assay with MCF7 breast; 28.8 µM with SF-539 CNS; 29.1 µM in the assay with OVCAR-3 ovarian; 44.6 µM in the assay with HS 578T breast; 29.5 µM in the assay on HOP-92 NSCLC.

Turning to `CCOC(=O)C(CCc1ncnc2c1ncn2Cc1ccccc1)(CCc1ncnc2c1ncn2Cc1ccccc1)C(=O)OCC`, the TGI was over 100 µM with HT29 colon; 54.8 µM with HCC-2998 colon; over 100 µM with OVCAR-4 ovarian; over 100 µM in the assay with A498 renal; over 100 µM in the assay on KM12 colon; over 100 µM in the assay on SW-620 colon. Moreover, the TGI with UACC-257 melanoma, in the assay with M14 melanoma, in the assay on A549 NSCLC, in the assay on LOX IMVI melanoma, in the assay on HL-60(TB) leukemia and with MCF7 breast was over 100 µM throughout. Moreover, the TGI in the assay on SF-539 CNS was 94.6 µM; in the assay on OVCAR-3 ovarian, over 100 µM; in the assay on HS 578T breast it was over 100 µM; in the assay with HOP-92 NSCLC, over 100 µM.

For `CN(CCCn1ccnc1[N+](=O)[O-])CCCn1ccnc1[N+](=O)[O-]`, the TGI in the assay with SK-OV-3 ovarian, in the assay on HT29 colon, in the assay on SNB-75 CNS, in the assay with OVCAR-4 ovarian, with A498 renal and in the assay on KM12 colon was over 100 µM throughout. In addition, the TGI in the assay on SW-620 colon, in the assay on UACC-257 melanoma, in the assay on M14 melanoma, in the assay with A549 NSCLC, in the assay on LOX IMVI melanoma and with HL-60(TB) leukemia was over 100 µM each time. In addition, the TGI in the assay with MCF7 breast, in the assay on SF-539 CNS, in the assay with OVCAR-3 ovarian and with HS 578T breast was over 100 µM each time.
